Test results as given in patent US12653774B2, “Topical compositions and methods for using same” (MARY KAY INC., priority 2022, dated 2026).

Biological target: T1, TRPV-1 (Rattus norvegicus, UniProt O35433)
T1 construct: host or cells: PC 12 cells
Test: Capsaicin induced TRPV-1 mediated calcium flux assay (Fura-2AM) in PC 12 cells
Format: cell-based
Description: (§1) Briefly, Ca^2+ influx was used as a measure of TRPV-1 activity. PC 12 cells (ATCC CRL-1721) were pre-incubated for 4 hours at 37° C. with the respective noted compounds (e.g., plankton extract (test), or capsazepine (positive control)). Following pre-incubation, treatment media was removed and cells were incubated with 100 μl of 0.67 μM Fura-2-acetoxymethyl ester ((Fura-2AM), a high affinity, intracellular calcium indicator that is ratiometric and UV light—excitable) for 1 hour at 37° C. After incubation, cells were treated with 200 μM of capsaicin to induce TRPV-1 mediated Ca^2+ flux response and fluorescence readings were taken every 7 seconds for 10 minutes at 360/460 nm. Data was normalized to controls, plotted as shown, and area under the curve (AUC) values were determined (see Table 2).
as §1, with “test compounds.” for “noted compounds (e.g., plankton extract (test), or capsazepine (positive control)).”, “Fura-2AM” for “Fura-2-acetoxymethyl ester ((Fura-2AM), a high affinity, intracellular calcium indicator that is ratiometric and UV light—excitable)”, “AUC” for “area under the curve (AUC)”
Ingredient samples were analyzed for their ability to inhibit calcium flux production in PC 12 cells (ATCC CRL-1721). PC 12 cells were maintained and passaged according to the manufacturer's recommended guidelines. For experiments, 1×10^5 cells/well were plated in 96 well black flat bottom plates. Fura-2-Acetoxymethyl ester (Fura-2AM) calcium detection assay kit (Cayman Chemical #14591) was used to detect calcium in the cells post treatment. Capsaicin (Sigma #M202) was used to trigger a response, and capsazepine (Sigma #C191) was used as a positive control. In brief, Ca2^+ influx was used as a measure of TRPV-1 activity. PC 12 cells (ATCC CRL-1721) were pre-incubated for 4 hours at 37° C. with the respective test compounds. Following pre-incubation, treatment media was removed and cells were incubated with 100 μl of 0.67 μM Fura-2AM for 1 hour at 37° C. After incubation, cells were treated with 200μM of capsaicin to induce TRPV-1 mediated Ca^2+ flux response and fluorescence readings were taken every 7 seconds for 10 minutes at 360/460 nm. Following the test period, buffer was removed and 100 μl diluted MTS reagent was added to each well. Cells were incubated for 15 to 30 minutes at 37° C. 5% CO2, and plates were then read at 490 nm. Cell viability was assessed prior to analyzing for calcium flux.
Fluorescence test data was normalized to controls to generate area under the curve (AUC) values. For each control and test, fluorescence arbitrary units (AU) were normalized to controls for timepoints 0, and 0.5-9 minutes. The normalized data was plotted on an XY graph using GraphPad Prism software to generate a calcium flux curve, with time on the X axis, and normalized AU on the Y axis. The AUC was then calculated for the untreated control, and net AUC was determined for each test and control condition.

[1] = 400 μM, pre-incubation 4 hours, then 200 μM capsaicin, positive control

T1 sequence (O35433 whole entry): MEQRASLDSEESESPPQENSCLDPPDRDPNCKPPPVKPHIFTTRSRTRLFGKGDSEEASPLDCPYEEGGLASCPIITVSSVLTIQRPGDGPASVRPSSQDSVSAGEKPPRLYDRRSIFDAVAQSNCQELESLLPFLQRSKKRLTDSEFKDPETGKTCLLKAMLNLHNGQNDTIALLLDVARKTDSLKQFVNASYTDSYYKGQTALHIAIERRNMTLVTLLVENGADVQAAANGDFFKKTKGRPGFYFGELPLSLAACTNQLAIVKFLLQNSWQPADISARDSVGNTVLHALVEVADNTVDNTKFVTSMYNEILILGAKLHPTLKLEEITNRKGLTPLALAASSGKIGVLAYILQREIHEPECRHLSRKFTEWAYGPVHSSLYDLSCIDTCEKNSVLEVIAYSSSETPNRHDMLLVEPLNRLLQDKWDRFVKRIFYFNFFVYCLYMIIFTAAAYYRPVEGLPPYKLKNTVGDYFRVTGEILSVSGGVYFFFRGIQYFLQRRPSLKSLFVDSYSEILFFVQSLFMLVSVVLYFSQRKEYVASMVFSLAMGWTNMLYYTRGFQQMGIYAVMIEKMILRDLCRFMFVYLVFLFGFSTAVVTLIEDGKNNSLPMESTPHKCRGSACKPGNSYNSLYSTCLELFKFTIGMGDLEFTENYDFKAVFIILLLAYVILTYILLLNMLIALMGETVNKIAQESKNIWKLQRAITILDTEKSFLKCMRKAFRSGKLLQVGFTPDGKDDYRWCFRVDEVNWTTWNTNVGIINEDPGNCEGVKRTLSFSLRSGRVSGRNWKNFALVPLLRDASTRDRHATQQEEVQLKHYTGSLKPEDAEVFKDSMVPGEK

Delta compared to untreated (200 μM, net AUC vs untreated baseline 9.009, negative control) | AUC (200 μM, normalized Ca2+ flux curve, PC 12 cells, negative control) | Percentage activity compared to positive control (200 μM, relative to capsazepine 400 μM, negative control) | AUC [1] | Delta compared to untreated [1] | Percentage activity compared to positive control (400 μM, the positive control itself) | Compound
0.944 | 9.953 | −453.56% | – | – | – | COc1cc(CNC(=O)CCCC/C=C/C(C)C)ccc1O [Capsaicin]
– | – | – | 8.742 | −0.267 | NA (0) % | Oc1cc2c(cc1O)CN(C(=S)NCCc1ccc(Cl)cc1)CCC2 [Capsazepine, capsazepine]
